The target in one test is T1, recombinant human TRPV1 (Homo sapiens, UniProt Q8NER1).
T1 construct: expressed in transfected cells
Briefly: Calcium assay (Fluo-4) for TRPV1 antagonism in HEK293 cells in the presence of capsaicin. The format is cell-based. Conditions: for TRPV1 antagonism (result in words), pre-incubation mode: isomer applied 10 min before addition of capsaicin; for TRPV1 antagonism (result in words): parallel application with capsaicin as agonist. As to the method: Three samples of cis- and/or trans-4-tert-butyl cyclohexanol were assessed: 1) 99% trans-isomer, 2) an isomeric mixture enriched in the cis-isomer (59% cis, 41% trans) and 3) 99% cis-isomer.
Calciumassay based on fluorescent dye Fluo-4-AM
Negative Control: KH-buffer (solvent)
Positive Control: lonomycin (generell calcium induction)
Positive Control Capsaicin (natural agonist of TRPV1)
One day prior to performing the assay, HEK293 cells stably overexpressing recombinant human TRPV1 were plated onto black-walled assay plates, at a density of 45,000 cells per well. Using the FLEX Station system the change of the cellular calcium concentration (calcium influx) induced by TRPV1 activation was monitored using the calcium sensitive fluorescent dye fluo-4 (494 nm/516 nm (exitation/emission)). The pharmacological TRPV1 antagonist Ruthenium Red (1 μM) was used as positive control [J. Biol. Chem. 2004, 279 (34): 35741-8]. The dye-loaded stable cells in plates were placed into the fluorescence microtiter plate reader to monitor fluorescence (excitation 488 nm, emission 520 nm) change after the addition of 50 μl assay buffer (118 mM NaCl; 4.7 mM KCl; 1.2 mM MgSO4; 1.2 mM KH2PO4; 4.2 mM NaHCO3; 1.3 mM CaCl2; 10 mM HEPES (N-(2-hydroxyethyl)-piperazine-N′-2-ethanesulfonic acid) (pH: 7.4)) supplemented with an antagonist. Calcium mobilization was quantified as the change of peak fluorescence (ΔF) over the baseline level (F). The analysis was done with the software of the microtiter plate reader (FLEX Station). Potential TRPV1 antagonists were tested at an effective range of 0.5-50 μM. The test compounds were either applied in parallel to 30 nM capsaicin or 10 min prior to the agonist. TRPV1 antagonists were tested for their antagonistic activity in the presence of 30 nM capsaicin, which is the EC80 effective capsaicin concentration leading to 80% of the maximum capsaicin dependent TRPV1 activation.
Antagonistic efficacy of the isomers of 4-tert-butyl cyclohexanol on transient receptor potential ion channel 1 in cell based fluorescent analysis.
The three samples were tested for TRPV1 antagonism at parallel application with capsaicin as agonist.
TRPV1 antagonist in vitro at incubation prior to capsaicin: cis-4-tert-butyl cyclohexanol and trans-4-tert-butyl cyclohexanol were applied to HEK293 cells 10 min before capsaicin treatment.
We therefore additionally tested the pure cis- and trans-isomers of 4-tert-butyl cyclohexanol respectively in a pre-incubation mode with application of the respective isomer 10 min before addition of capsaicin.

The test system of test [1] is volunteers who were sensitive to capsaicin. Briefly: In vivo testing: capsaicin-induced stinging on the cheek, O/W-emulsion versus placebo. Details: species or system human. To be noted: O/W-emulsion with 1 wt. % applied 60 s after 31.6 ppm capsaicin on cheek; evaluated 5 minutes later; 9 volunteers. The protocol:
A study was performed with 9 volunteers who were sensitive to capsaicin. […] After 60 seconds all participants sensed a pronounced stinging effect. Then, an O/W-emulsion with 1 wt. % racemic trans-4-tert-butyl cyclohexanol (purity >99 wt. %) was applied on one cheek and the placebo O/W-emulsion on the other cheek (blinded samples).

For test [2] the test system is unchanged. Briefly: Clinical study: stinging and burning at the nasolabial fold, O/W-emulsion with capsaicin with or without active. The test is classed as in vivo, human. To be noted: O/W-emulsion with 31.6 ppm capsaicin and 1 wt. % active on nasolabial fold; evaluated 3 minutes later; 20 volunteers. The protocol: A study was performed with 20 volunteers who were sensitive to capsaicin. […] On day 1 sample c2 was assessed versus control. On day 2 sample c1 was assessed versus control. The stinging and burning effects were evaluted 3 minutes later on the same scale as in Example 1.2.

Usually IC50 stands for the point on the concentration scale where inhibition reaches its midpoint.

T1 sequence (Q8NER1 whole entry): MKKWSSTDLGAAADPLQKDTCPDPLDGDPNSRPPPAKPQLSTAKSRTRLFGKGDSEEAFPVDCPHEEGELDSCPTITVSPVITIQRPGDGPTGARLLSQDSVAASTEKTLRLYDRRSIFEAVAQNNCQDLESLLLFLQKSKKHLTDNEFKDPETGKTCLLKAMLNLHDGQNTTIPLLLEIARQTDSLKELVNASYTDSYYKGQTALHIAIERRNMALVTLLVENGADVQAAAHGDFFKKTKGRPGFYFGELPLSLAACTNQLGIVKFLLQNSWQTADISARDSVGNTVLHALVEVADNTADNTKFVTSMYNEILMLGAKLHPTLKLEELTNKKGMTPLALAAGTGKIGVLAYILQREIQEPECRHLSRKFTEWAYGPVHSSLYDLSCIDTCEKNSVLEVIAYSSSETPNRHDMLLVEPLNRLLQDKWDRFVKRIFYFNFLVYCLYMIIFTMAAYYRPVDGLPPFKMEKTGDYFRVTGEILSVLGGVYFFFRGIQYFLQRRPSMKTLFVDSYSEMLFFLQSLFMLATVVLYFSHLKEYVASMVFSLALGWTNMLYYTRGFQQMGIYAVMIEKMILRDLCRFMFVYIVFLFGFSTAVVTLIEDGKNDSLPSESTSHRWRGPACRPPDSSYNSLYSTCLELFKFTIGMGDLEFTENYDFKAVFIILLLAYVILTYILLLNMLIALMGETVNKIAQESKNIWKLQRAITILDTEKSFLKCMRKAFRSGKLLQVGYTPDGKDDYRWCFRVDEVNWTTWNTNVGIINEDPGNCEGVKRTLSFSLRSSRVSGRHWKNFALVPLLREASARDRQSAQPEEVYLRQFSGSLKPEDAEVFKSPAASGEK

With `COc1cc(CNC(=O)CCCC/C=C/C(C)C)ccc1O` [capsaicin, reference compound], at recombinant human TRPV1 (agonist, HEK293 cells overexpressing human TRPV1), the “EC80 effective capsaicin concentration (80% of maximum capsaicin dependent TRPV1 activation)” value was 0.03 µM.

Regarding `CC(C)(C)[C@H]1CC[C@@H](O)CC1` [cis-4-tert-butyl cyclohexanol, reference compound], at recombinant human TRPV1, the “TRPV1 antagonism (result in words), pre-incubation mode” value is reported as “not active” and the “TRPV1 antagonism (result in words)” value is “inactive”.

In the case of `CC(C)(C)[C@H]1CC[C@H](O)CC1` [trans-4-tert-butyl cyclohexanol], in test [1], the “average rating of reduction of stinging effect on scale 0 (no effect) to 4 (completely suppressed)” value came to 3.10. Further, the “average rating of inhibition/reduction of stinging and burning on scale 0 to 4” value in test [2] came out at 2.95. Besides, at recombinant human TRPV1, the “TRPV1 antagonism (result in words), pre-incubation mode” value is given as “strong activity” and the “TRPV1 antagonism (result in words)” value is given as “significantly more active”. Also, at recombinant human TRPV1 (parallel application with 30 nM capsaicin as agonist, HEK293 cells overexpressing human TRPV1), the IC50 was determined as 34.1 µM.

Source of the values: patent US9060943B2, “Compositions comprising trans-tert-butyl cyclohexanol as skin irritation-reducing agent” (SYMRISE AG, priority 2009, dated 2015).
